Data taken from patent US12459951B2, “Compounds that interact with RAS superfamily proteins for treatment of cancers, inflammatory diseases, rasopathies, and fibrotic disease” (SHY Therapeutics, LLC, priority 2022, dated 2025).
Counter-ions that a name gives are not always drawn.

Key:
Erk1/2 phosphorylation = experiment: Erk1/2 Phosphorylation Assay (western blot), Panc-1; format: cell-based, human; details: at 10 μM, * = activation
Procedure, shortened: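 Phospho-Erk1/2 (Thr202/Tyr204) was detected by western blot in lysates of Panc-1 cells (KRas G12D). These had 6 h, 37° C exposure to 10 μM compound or a dilution series for IC50, in 0.3% DMSO. Cells were either starved overnight in 0.5% FBS with a 15-min 1.5 ng/ml EGF pulse, or kept unstimulated in 10% FBS.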

[1] = test system: MiaPaca-2 (expressing KRAS G12C mutant); experiment: Proliferation Assay (Cell Viability Assay); format: cell-based; details: Homo sapiens, MIA PaCa-2; read-out: Proliferation in MiaPaca-2: IC50
Procedure, shortened: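 After 2–4 days' exposure at 37 °C, 5% CO2 to a single 10 μM final concentration or a dilution series (IC50), percent proliferation inhibition was derived from CellTiter 96 Aqueous One viability readings. The medium contained 0.3% DMSO and 10% FBS. KRAS G12C MiaPaca-2 cells were plated at 2000–5000/well the day before.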

TNF-alpha = TNF-alpha Quantification Assay (ELISA), LPS-stimulated RAW 264.7; format: cell-based; details: Mus musculus, RAW264.7; at 10 μM; read-out: TNFα: % inh.

Row | Structure (SMILES) | % inh of Erk1/2 phosphorylation in Panc-1 (Erk1/2 phosphorylation) | IC50 [1] [nM] | inhibition at 10 µM (TNF-alpha) [%]
1 | CO[C@H]1CC[C@@H](Nc2nc(-c3nccn3C)nn3cc(-c4ccn(C(C)C)n4)c(C)c23)C1 (racemic) [Compound 1, rac 6-(1-Isopropyl-1H-pyrazol-3-yl)-N-((1R,3S)-3-methoxycyclopentyl)-5-methyl-2-(1-methyl-1H-imidazol-2-yl)pyrrolo[2,1-f][1,2,4]triazin-4-amine] | 0 (0% inhibition) | > 1000 | 1 to 24
2 | COCC1CCN(c2nc(-c3nccn3C)nn3cc(-c4ccn(C(C)C)n4)c(C)c23)C1 (racemic) [Compound 2, rac 6-(1-Isopropyl-1H-pyrazol-3-yl)-4-(3-(methoxymethyl)pyrrolidin-1-yl)-5-methyl-2-(1-methyl-1H-imidazol-2-yl)pyrrolo[2,1-f][1,2,4]triazine] | B (26-49% inhibition) | > 1000 | 25 to 49
3 | COC[C@@H]1CC[C@@H]1CNc1nc(-c2nccn2C)nn2cc(-c3ccn(C(C)C)n3)c(C)c12 (racemic) [Compound 3, rac 6-(1-Isopropyl-1H-pyrazol-3-yl)-N-(((1S,2R)-2-(methoxymethyl)cyclobutyl)methyl)-5-methyl-2-(1-methyl-1H-imidazol-2-yl)pyrrolo[2,1-f][1,2,4]triazin-4-amine] | D (85-100% inhibition) | > 1000 | 25 to 49
4 | COC1CCCN(c2nc(-c3nccn3C)nn3cc(-c4ccn(C(C)C)n4)c(C)c23)C1 (racemic) [Compound 4, rac 6-(1-Isopropyl-1H-pyrazol-3-yl)-5-methyl-2-(1-methyl-1H-imidazol-2-yl)-4-(3-(oxo-γ6-methyl)piperidin-1-yl)pyrrolo[2,1-f][1,2,4]triazine] | D (85-100% inhibition) | > 1000 | 75 to 100
5 | CO[C@H]1CC[C@@H](Nc2nc(-c3nccn3C)nn3cc(-c4ccn(C(C)C)n4)c(-c4ccccc4)c23)C1 (racemic) [Compound 18, rac 6-(1-Isopropyl-1H-pyrazol-3-yl)-N-((1R,3S)-3-methoxycyclopentyl)-2-(1-methyl-1H-imidazol-2-yl)-5-phenylpyrrolo[2,1-f][1,2,4]triazin-4-amine hydrochloride] | C (50-84% inhibition) | > 1000 | 1 to 24
6 | COCC1CCN(c2nc(-c3nccn3C)nn3cc(-c4ccn(C(C)C)n4)c(-c4ccccc4)c23)C1.Cl (racemic) [Compound 19, rac 6-(1-Isopropyl-1H-pyrazol-3-yl)-4-(3-(methoxymethyl)pyrrolidin-1-yl)-2-(1-methyl-1H-imidazol-2-yl)-5-phenylpyrrolo[2,1-f][1,2,4]triazine hydrochloride salt] | 0 (0% inhibition) | > 1000 | 25 to 49
7 | COC[C@@H]1CC[C@@H]1CNc1nc(-c2nccn2C)nn2cc(-c3ccn(C(C)C)n3)c(-c3ccccc3)c12 (racemic) [Compound 20, rac 6-(1-Isopropyl-1H-pyrazol-3-yl)-N-(((1S,2R)-2-(methoxymethyl)cyclobutyl)methyl)-2-(1-methyl-1H-imidazol-2-yl)-5-phenylpyrrolo[2,1-f][1,2,4]triazin-4-amine] | D (85-100% inhibition) | > 1000 | 1 to 24
8 | COC1CCCN(c2nc(-c3nccn3C)nn3cc(-c4ccn(C(C)C)n4)c(-c4ccccc4)c23)C1 (racemic) [Compound 21, rac 6-(1-Isopropyl-1H-pyrazol-3-yl)-4-(3-methoxypiperidin-1-yl)-2-(1-methyl-1H-imidazol-2-yl)-5-phenylpyrrolo[2,1-f][1,2,4]triazine] | 0 (0% inhibition) | > 1000 | 0
9 | COc1cccc(-c2cn3nc(-c4nccn4C)nc(N[C@@H]4CC[C@@H](OC)C4)c3c2-c2ccccc2)c1Cl.Cl (racemic) [Compound 34, rac 6-(2-Chloro-3-methoxyphenyl)-N-((1R,3R)-3-methoxycyclopentyl)-2-(1-methyl-1H-imidazol-2-yl)-5-phenylpyrrolo[2,1-f][1,2,4]triazin-4-amine hydrochloride] | D (85-100% inhibition) | 510 to 1000 | 1 to 24
10 | COc1cccc(-c2cn3nc(-c4nccn4C)nc(N[C@@H]4CC[C@@H](OC)C4)c3c2-c2ccccc2)c1C (racemic) [Compound 270, rac 6-(3-Methoxy-2-methylphenyl)-N-((1R,3R)-3-methoxycyclopentyl)-2-(1-methyl-1H-imidazol-2-yl)-5-phenylpyrrolo[2,1-f][1,2,4]triazin-4-amine] | D (85-100% inhibition) | 150 to 500 | 75 to 100
11 | COc1cccc(-c2cn3nc(-c4nccn4C)nc(N[C@@H]4CC[C@H](OC)C4)c3c2-c2ccccc2)c1C (racemic) [Compound 271, rac 6-(3-Methoxy-2-methylphenyl)-N-((1R,3S)-3-methoxycyclopentyl)-2-(1-methyl-1H-imidazol-2-yl)-5-phenylpyrrolo[2,1-f][1,2,4]triazin-4-amine] | D (85-100% inhibition) | 150 to 500 | 75 to 100
12 | COCCNc1nc(-c2nccn2C)nn2cc(-c3ccn(C(C)C)n3)c(C)c12 [Compound 5, 6-(1-Isopropyl-1H-pyrazol-3-yl)-N-(2-methoxyethyl)-5-methyl-2-(1-methyl-1H-imidazol-2-yl)pyrrolo[2,1-f][1,2,4]triazin-4-amine] | 0 (0% inhibition) | > 1000 | 0
13 | COc1cccc(Nc2nc(-c3nccn3C)nn3cc(-c4ccn(C(C)C)n4)c(C)c23)n1 [Compound 7, 6-(1-Isopropyl-1H-pyrazol-3-yl)-N-(6-methoxypyridin-2-yl)-5-methyl-2-(1-methyl-1H-imidazol-2-yl)pyrrolo[2,1-f][1,2,4]triazin-4-amine] | 0 (0% inhibition) | > 1000 | 0
14 | CC(C)n1ccc(-c2cn3nc(-c4nccn4C)nc(O)c3c2-c2ccccc2)n1 [Compound 17, 6-(1-Isopropyl-1H-pyrazol-3-yl)-2-(1-methyl-1H-imidazol-2-yl)-5-phenylpyrrolo[2,1-f][1,2,4]triazin-4-ol] | A (1-25% inhibition) | > 1000 | 25 to 49
15 | COc1cc(Nc2nc(-c3nccn3C)nn3cc(-c4ccn(C(C)C)n4)c(-c4ccccc4)c23)ncn1 [Compound 22, 6-(1-Isopropyl-1H-pyrazol-3-yl)-N-(6-methoxypyrimidin-4-yl)-2-(1-methyl-1H-imidazol-2-yl)-5-phenylpyrrolo[2,1-f][1,2,4]triazin-4-amine] | 0 (0% inhibition) | 150 to 500 | 0
16 | Cc1ccn2nc(-c3nccn3C)nc(N)c12.O=C(O)C(F)(F)F [Compound 37, 5-Methyl-2-(1-methyl-1H-imidazol-2-yl)pyrrolo[2,1-f][1,2,4]triazin-4-amine trifluoroacetic acid salt] | 0 (0% inhibition) | > 1000 | 0
17 | Cn1ccnc1-c1nc(O)c2c(-c3ccccc3)ccn2n1 [Compound 39, 2-(1-Methyl-1H-imidazol-2-yl)-5-phenylpyrrolo[2,1-f][1,2,4]triazin-4-ol] | 0 (0% inhibition) | > 1000 | 0
18 | Cc1c(-c2ccn(C(C)C)n2)cn2nc(-c3nccn3C)nc(Nc3noc(C4CC4)n3)c12 [Compound 75, 5-Cyclopropyl-N-(6-(1-isopropyl-1H-pyrazol-3-yl)-5-methyl-2-(1-methyl-1H-imidazol-2-yl)pyrrolo[2,1-f][1,2,4]triazin-4-yl)-1,2,4-oxadiazol-3-amine] | B (26-49% inhibition) | > 1000 | 1 to 24
19 | CCc1nc(Nc2nc(-c3nccn3C)nn3cc(-c4ccn(C(C)C)n4)c(C)c23)nn1C [Compound 76, N-(5-Ethyl-1-methyl-1H-1,2,4-triazol-3-yl)-6-(1-isopropyl-1H-pyrazol-3-yl)-5-methyl-2-(1-methyl-1H-imidazol-2-yl)pyrrolo[2,1-f][1,2,4]triazin-4-amine] | 0 (0% inhibition) | < 150 | 25 to 49
20 | Cc1c(-c2ccn(C(C)C)n2)cn2nc(-c3nccn3C)nc(Nc3cnn(C(C)C)n3)c12 [Compound 77, 6-(1-Isopropyl-1H-pyrazol-3-yl)-N-(2-isopropyl-2H-1,2,3-triazol-4-yl)-5-methyl-2-(1-methyl-1H-imidazol-2-yl)pyrrolo[2,1-f][1,2,4]triazin-4-amine] | D* (85-100% activation) | > 1000 | 25 to 49
21 | Cc1c(-c2ccn(C(C)C)n2)cn2nc(-c3nccn3C)nc(Nc3cn(C(C)C)nn3)c12 [Compound 78, N-(1-Isopropyl-1H-1,2,3-triazol-4-yl)-6-(1-isopropyl-1H-pyrazol-3-yl)-5-methyl-2-(1-methyl-1H-imidazol-2-yl)pyrrolo[2,1-f][1,2,4]triazin-4-amine] | D* (85-100% activation) | 150 to 500 | 25 to 49
